Paper PMC11274128, “Modification and Synergistic Studies of a Novel Frog Antimicrobial Peptide against Pseudomonas aeruginosa Biofilms” (Antibiotics, 2024)
Read-outs that look alike come from different tables or passages of the source. Bridge positions count the residues as written; N and C are the ends. Ends that are not written are not given here.

How the values were obtained:
Yeast = assay: Geometric mean of MICs and TI value; format: cell-based, Candida albicans; conditions: C. albicans ATCC 10231
Method: (§1) The therapeutic potential of antimicrobial agents was valued based on their selectivity toward bacteria in reference to erythrocytes. The TI value was calculated from the results of antibacterial and haemolysis experiments of peptides using the following formula:TI value = HC10 / GMMICs.
(§2) GM was the geometric mean of MICs against all tested bacteria.

E. faecalis (NCTC 12697) = assay: microbe, parasite or virus in culture; format: cell-based, Enterococcus faecalis; conditions: planktonic E. faecalis NCTC 12697; for MIC: 37 °C, nine repeats of three independent experiments; for MBC: lowest concentration killing 99.9% of inoculum
Excerpt: (§3) The minimum inhibitory concentration (MIC) is the minimum concentration of an antimicrobial agent that prevents the visible growth of a bacterium or bacteria. The MIC is an important piece of data for research on new antimicrobial agents and helps in the effective selection of antibiotics to improve the success of treatment. The minimum bactericidal concentration (MBC) is defined as the lowest antibiotic concentration that kills 99.9% of the inoculum. This study mainly contained eight different microorganisms, which were Staphylococcus aureus (ATCC 6538), methicillin-resistant Staphylococcus aureus (NCTC 12493), Enterococcus faecalis (NCTC 12697), Escherichia coli (ATCC 8739), Klebsiella pneumoniae (ATCC 43816), Pseudomonas aeruginosa (ATCC CRM 9027), Acinetobacter baumannii (BAA 747), and Candida albicans (ATCC 10231). The bacteria were incubated in the compatible medium at 37 °C overnight.

[1] = tested on: P. aeruginosa (ATCC CRM 9027); assay: microbe, parasite or virus in culture; format: cell-based, Pseudomonas aeruginosa; conditions: planktonic P. aeruginosa ATCC CRM 9027; for MIC: 37 °C, nine repeats of three independent experiments; for MBC: lowest concentration killing 99.9% of inoculum
Excerpt: as §3

MRSA (NCTC 12493) = assay: microbe, parasite or virus in culture; format: cell-based, methicillin-resistant Staphylococcus aureus; conditions: planktonic MRSA NCTC 12493; for MIC: 37 °C, nine repeats of three independent experiments; for MBC: lowest concentration killing 99.9% of inoculum
Excerpt: as §3

horse red blood cells = horse red blood cells in PBS, 37 °C, 2 h, absorbance 570 nm; positive control 0.1% Triton
Method: The pure peptide was dissolved in PBS and then two-fold diluted to obtain a series of concentrations: 512, 256, 128, 64, 32, 16, 8, 4, and 2 μM. A positive control (0.1% Triton) and blank control (PBS) were used. Two millilitres of fresh horse red blood cells were washed in PBS until the supernatant became colourless and clear, and the mixture was then thoroughly mixed. Each mixture contained 100 μL of peptide solution or controls and 100 μL of horse red blood cells, which were then incubated at 37 °C for 2 h and centrifuged at 930× g for 10 min. Subsequently, 100 μL of supernatant from each tube was transferred into a 96-well plate, and the plate reader measured the absorbance at a wavelength of 570 nm. The haemolysis rate was calculated using the following formula:Percentage Haemolysis= (ASample − ABlank)/(APositive − ABlank) × 100%

A. baumannii (BAA 747) = assay: microbe, parasite or virus in culture; format: cell-based, Acinetobacter baumannii; conditions: planktonic A. baumannii BAA 747; for MIC: 37 °C, nine repeats of three independent experiments; for MBC: lowest concentration killing 99.9% of inoculum
Excerpt: as §3

E. coli (ATCC 8739) = assay: microbe, parasite or virus in culture; format: cell-based, Escherichia coli; conditions: planktonic E. coli ATCC 8739; for MIC: 37 °C, nine repeats of three independent experiments; for MBC: lowest concentration killing 99.9% of inoculum
Excerpt: as §3

C. albicans (ATCC 10231) = format: cell-based, Candida albicans; conditions: yeast C. albicans ATCC 10231; for MIC: 37 °C, nine repeats of three independent experiments; for MBC: lowest concentration killing 99.9% of inoculum
Excerpt: as §3

S. aureus (ATCC 6538) = assay: microbe, parasite or virus in culture; format: cell-based, Staphylococcus aureus; conditions: planktonic S. aureus ATCC 6538; for MIC: 37 °C, nine repeats of three independent experiments; for MBC: lowest concentration killing 99.9% of inoculum
Excerpt: as §3

[2] = tested on: K. pneumoniae (ATCC 43816); assay: microbe, parasite or virus in culture; format: cell-based, Klebsiella pneumoniae; conditions: planktonic K. pneumoniae ATCC 43816; for MIC: 37 °C, nine repeats of three independent experiments; for MBC: lowest concentration killing 99.9% of inoculum
Excerpt: as §3

G− Bacteria = assay: Geometric mean of MICs and TI value; format: cell-based; conditions: geometric mean of MICs against tested Gram-negative bacteria
Method: as §1, §2

G+ Bacteria = assay: Geometric mean of MICs and TI value; format: cell-based; conditions: geometric mean of MICs against tested Gram-positive bacteria
Method: as §1, §2

| Substance | GM (geometric mean of MICs), Yeast (Yeast) [µM] | MIC (E. faecalis (NCTC 12697)) [µM] | MBC (E. faecalis (NCTC 12697)) [µM] | MIC ([1]; read-out: MIC) [µM] | MBC ([1]; read-out: MBC) [µM] | HC10 (horse red blood cells) [µM] | MIC (A. baumannii (BAA 747)) [µM] | MBC (A. baumannii (BAA 747)) [µM] | MIC (E. coli (ATCC 8739); read-out: MIC) [µM] | MBC (E. coli (ATCC 8739); read-out: MBC) [µM] | MIC (C. albicans (ATCC 10231)) [µM] | MBC (C. albicans (ATCC 10231)) [µM] | MIC (S. aureus (ATCC 6538)) [µM] | MBC (S. aureus (ATCC 6538)) [µM] | MIC ([2]; read-out: MIC) [µM] | MBC ([2]; read-out: MBC) [µM] | GM (geometric mean of MICs), G− Bacteria (G− Bacteria) [µM] | GM (geometric mean of MICs), G+ Bacteria (G+ Bacteria) [µM] | MIC (MRSA (NCTC 12493)) [µM] | MBC (MRSA (NCTC 12493)) [µM] | also measured |
| --- | --- | --- | --- | --- | --- | --- | --- | --- | --- | --- | --- | --- | --- | --- | --- | --- | --- | --- | --- | --- | --- |
| GLLRGVLGAGKKIVCGLSGRC (disulfide 15-21 (inferred)) [Peptide 2057-C, N-terminus modified analogue of Nigrosin-6VL] | 256.00 | > 128 | > 128 | 64 | 128 | >256 | > 128 | > 128 | 16 | 32 | > 128 | > 128 | 128 | > 128 | 64 | 128 | 64.00 | 128.00 | – | – | MIC (MRSA (NCTC 12493); read-out: MIC): 64 µM; MBC (MRSA (NCTC 12493); read-out: MBC): 128 µM |
| GLLSGVLGAGKKIVAGLSGRA [Peptide 1924-A] | 64.00 | > 128 | > 128 | – | – | >256 | > 128 | > 128 | 64 | 128 | 64 | 128 | 128 | > 128 | 64 | 128 | 107.63 | 203.19 | > 128 | > 128 | MIC [1]: 128 µM; MBC [1]: > 128 µM |
| GLLSGVLGAGKKIVCGLSGR- [Peptide 1885-R, Rana Box modified analogue of Nigrosin-6VL] | 256.00 | > 128 | > 128 | 32 | 64 | >256 | 128 | > 128 | 32 | 64 | > 128 | > 128 | 128 | > 128 | 32 | 64 | 45.25 | 128.00 | 64 | 64 | – |
| GLLSGVLGAGKKIVGLSGRC [Peptide 1885-C] | 256.00 | > 128 | > 128 | 64 | 128 | >256 | > 128 | > 128 | 16 | 32 | > 128 | > 128 | > 128 | > 128 | 64 | 128 | 64.00 | 256.00 | > 128 | > 128 | – |
| H-GLLSGVLGAGKKIVGLSGR-OH [Peptide 1782-R] | 256.00 | > 128 | > 128 | – | – | >256 | > 128 | > 128 | – | – | > 128 | > 128 | > 128 | > 128 | – | – | 215.27 | 256.00 | > 128 | > 128 | MIC [1]: > 128 µM; MBC [1]: > 128 µM; MIC (E. coli (ATCC 8739)): 128 µM; MBC (E. coli (ATCC 8739)): > 128 µM; MIC [2]: > 128 µM; MBC [2]: > 128 µM |
